From BigSolDB 2.1

CC(C)(C)OC(=O)N[C@@H](CC(=O)O)Cc1cc(F)c(F)cc1F
solubility (mole fraction)
Settings | in THF | in ethanol | in ethyl acetate | in methanol | in n-butanol | in n-propanol
280.15 K | 0.0933 | 0.036 | 0.0409 | 0.053 | 0.0274 | 0.0312
285.15 K | 0.105 | 0.042 | 0.0477 | 0.0582 | 0.0306 | 0.0374
290.15 K | 0.116 | 0.0483 | 0.0556 | 0.0669 | 0.0353 | 0.0449
295.15 K | 0.129 | 0.0559 | 0.0652 | 0.0751 | 0.0426 | 0.0522
300.15 K | 0.144 | 0.0659 | 0.0773 | 0.085 | 0.0514 | 0.0619
305.15 K | 0.163 | 0.0754 | 0.089 | 0.097 | 0.0619 | 0.0718
310.15 K | 0.187 | 0.0894 | 0.104 | 0.111 | 0.0735 | 0.0847
315.15 K | 0.215 | 0.103 | 0.121 | 0.129 | 0.0868 | 0.0985
320.15 K | 0.244 | 0.125 | 0.14 | 0.151 | 0.103 | 0.116
325.15 K | 0.279 | 0.147 | 0.164 | 0.178 | 0.126 | 0.139
330.15 K | 0.322 | 0.173 | 0.188 | 0.211 | 0.154 | 0.162
